# In patent US20230051589A1, “COMPOUNDS AND COMPOSITIONS FOR TREATING CONDITIONS ASSOCIATED WITH NLRP ACTIVITY” (Novartis AG, priority 2018, published 2023):
# Tested on: IL-1β production in PMA-differentiated THP-1 cells
# Experiment: IL-1β production in PMA-differentiated THP-1 cells stimulated with gramicidin (hTHP-1 assay, 2% fetal bovine serum; Procedures 1-3)
# Format: cell-based, human
# Conditions: Homo sapiens, THP-1, hTHP-1 assay containing 2% fetal bovine serum, Table B2, class symbols; read-out: IC50
# How it was run: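 IL-1β released into supernatants was read by HTRF after 2 h gramicidin (5 μM) challenge. Before challenge, compounds (3-fold dilutions, top 100 μM, 0.37% DMSO) were given 1 h on THP-1 cells differentiated with PMA (20 ng/ml, 16-18 h) and held in 2% FBS medium.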
row,IC50 [µM],Structure (SMILES)
1,1 to 5,"CNC(C)(C)c1ccc(S(N)(=O)=NC(=O)Nc2c3c(cc4c2CCC4)CCC3)cc1 (centres unmarked) [Example 486, N′-((1,2,3,5,6,7-hexahydro-s-indacen-4-yl)carbamoyl)-4-(2-(methylamino)propan-2-yl) benzenesulfonimidamide]"
2,1 to 5,"CN(Cc1ccc(S(N)(=O)=NC(=O)Nc2c3c(cc4c2CCC4)CCC3)cc1)CC(F)(F)F (centres unmarked) [Example 487, N′-((1,2,3,5,6,7-hexahydro-s-indacen-4-yl)carbamoyl)-4-((methyl(2,2,2-trifluoroethyl)amino)methyl) benzenesulfonimidamide]"
3,5 to 30,"NS(=O)(=NC(=O)Nc1c2c(cc3c1CCC3)CCC2)c1ccccc1 (centres unmarked) [Example 488, N′-((1,2,3,5,6,7-hexahydro-s-indacen-4-yl)carbamoyl)benzenesulfonimidamide]"
4,5 to 30,"CC(C)N(C)c1ccc(S(N)(=O)=NC(=O)Nc2c3c(cc4c2CCC4)CCC3)cc1 (centres unmarked) [Example 489, N′-((1,2,3,5,6,7-hexahydro-s-indacen-4-yl)carbamoyl)-4-(isopropyl(methyl)ammo) benzenesulfonimidamide]"
5,0.2 to 1,"CC(C)(O)c1cc(S(N)(=O)=NC(=O)Nc2c3c(c(C#N)c4c2CCC4)CCC3)nn1-c1ccccc1 (centres unmarked) [Example 490, N′-((8-cyano-1,2,3,5,6,7-hexahydro-s-indacen-4-yl)carbamoyl)-5-(2-hydroxypropan-2-yl)-1-phenyl-1H-pyrazole-3-sulfonamide]"
6,1 to 5,"CN(C)C(c1ccc(S(N)(=O)=NC(=O)Nc2c3c(cc4c2CCC4)CCC3)cc1)C(F)(F)F (centres unmarked) [Example 492, 4-(1-(Dimethylamino)-2,2,2-trifluoroethyl)-N′-((1,2,3,5,6,7-hexahydro-s-indacen-4-yl)carbamoyl)benzenesulfonimidamide]"
7,5 to 30,"NS(=O)(=NC(=O)Nc1c2c(cc3c1CCC3)CCC2)c1ccc(OC(F)F)cc1 (centres unmarked) [Example 493, 4-(Difluoromethoxy)-N′-((1,2,3,5,6,7-hexahydro-s-indacen-4-yl)carbamoyl) benzenesulfonimidamide]"
8,0.2 to 1,"CC(C)c1cc2c(cc1NC(=O)N=S(N)(=O)c1cnc(C(C)(C)O)s1)CCC2 (centres unmarked) [Example 494, 2-(2-Hydroxypropan-2-yl)-N′-((6-isopropyl-2,3-dihydro-1H-inden-5-yl)earbamoyl)thiazole-5-sulfonimidamide]"
9,1 to 5,"CNCC1(c2ccc(S(N)(=O)=NC(=O)Nc3c4c(cc5c3CCC5)CCC4)c(F)c2)CC1 (centres unmarked) [Example 495, 2-Fluoro-N′-((1,2,3,5,6,7-hexahydro-s-indacen-4-yl)carbamoyl)-4-(1-((methylamino)methyl)cyclopropyl)benzenesulfonimidamide]"
10,1 to 5,"CN(C)Cc1cnc(S(N)(=O)=NC(=O)Nc2c3c(cc4c2CCC4)CCC3)c(F)c1 (centres unmarked) [Example 497, 5-((Dimethylamino)methyl)-3-fluoro-N′-((1,2,3,5,6,7-hexahydro-s-indacen-4-yl)carbamoyl)pyridine-2-sulfonimidamide]"
11,0.04 to 0.2,"CC(C)(O)c1csc(S(N)(=O)=NC(=O)Nc2c3c(c(C#N)c4c2CCC4)CCC3)n1 (centres unmarked) [Example 499, N′-((8-Cyano-1,2,3,5,6,7-hexahydro-s-indacen-4-yl)carbamoyl)-4-(2-hydroxypropan-2-yl)thiazole-2-sulfonimidamide]"
12,1 to 5,"NS(=O)(=NC(=O)Nc1c2c(cc3c1CCC3)CCC2)c1cccc(CN2CCOCC2)c1 (centres unmarked) [Example 503, N′-((1,2,3,5,6,7-hexahydro-s-indacen-4-yl)carbamoyl)-3-(morpholinomethyl)benzenesulfonimidamide]"
13,5 to 30,COCCN(C)Cc1cccc(S(N)(=O)=NC(=O)Nc2c3c(cc4c2CCC4)CCC3)c1 (centres unmarked) [Example 504]
14,5 to 30,"CN1CCN(Cc2cccc(S(N)(=O)=NC(=O)Nc3c4c(cc5c3CCC5)CCC4)c2)CC1 (centres unmarked) [Example 505, N′-((1,2,3,5,6,7-hexahydro-s-indacen-4-yl)carbamoyl)-3-((4-methylpiperazin-1-yl)methyl) benzenesulfonimidamide]"
15,5 to 30,"CN(C)CCN(C)Cc1cccc(S(N)(=O)=NC(=O)Nc2c3c(cc4c2CCC4)CCC3)c1 (centres unmarked) [Example 506, 3-(((2-(Dimethylamino)ethyl) (methyl)amino)methyl)-N′-((1,2,3,5,6,7-hexahydro-s-indacen-4-yl)carbamoyl)benzenesulfonimidamide]"
16,5 to 30,"CN(Cc1cccc(S(N)(=O)=NC(=O)Nc2c3c(cc4c2CCC4)CCC3)c1)CC1CC1 (centres unmarked) [Example 507, 3-(((Cyclopropylmethyl) (methyl)amino)methyl)-N′-((1,2,3,5,6,7-hexahydro-s-indacen-4-yl)carbamoyl)benzenesulfonimidamide]"
17,5 to 30,"CNCc1cccc(S(N)(=O)=NC(=O)Nc2c3c(cc4c2CCC4)CCC3)c1 (centres unmarked) [Example 508, N′-((1,2,3,5,6,7-hexahydro-s-indacen-4-yl)carbamoyl)-3-((methylamino)methyl) benzenesulfonimidamide]"
18,0.2 to 1,"CC(C)(O)c1cnc([S@](N)(=O)=NC(=O)Nc2c3c(cc4c2C(O)CC4)CCC3)s1 (stereo partly drawn) [Example 510, (R)-N′-((3-hydroxy-1,2,3,5,6,7-hexahydro-s-indacen-4-yl)carbamoyl)-5-(2-hydroxypropan-2-yl)thiazole-2-sulfonimidamide]"
19,1 to 5,"CC(C)(O)c1cnc([S@](N)(=O)=NC(=O)Nc2c3c(cc4c2CCC4O)CCC3)s1 (stereo partly drawn) [Example 512, (R)-N′-((1-hydroxy-1,2,3,5,6,7-hexahydro-s-indacen-4-yl)carbamoyl)-5-(2-hydroxypropan-2-yl)thiazole-2-sulfonimidamide]"
20,5 to 30,"CCCc1c2c(c(NC(=O)N=S(N)(=O)c3cc(C(C)(C)O)n(-c4ccccc4)n3)c3c1CCC3)CCC2 (centres unmarked) [Example 513, 5-(2-hydroxypropan-2-yl)-1-phenyl-N′-((8-propyl-1,2,3,5,6,7-hexahydro-s-indacen-4-yl)carbamoyl)-1H-pyrazole-3-sulfonimidamide]"
21,1 to 5,"CC(C)(O)c1ncc([S@](N)(=O)=NC(=O)Nc2cc(CCCl)cc3c2CCC3)s1 [Example 514, (R)-N′-((6-(2-chloroethyl)-2,3-dihydro-1H-inden-4-yl)carbamoyl)-2-(2-hydroxypropan-2-yl)thiazole-5-sulfonimidamide]"
22,0.04 to 0.2,"CNCc1cc(F)c(S(N)(=O)=NC(=O)Nc2c3c(cc4c2CC4)CCC3)s1 (centres unmarked) [Example 669, 3-Fluoro-5-((methylamino)methyl)-N′-((2,4,5,6-tetrahydro-1H-cyclobuta[f]inden-3-yl)carbamoyl)thiophene-2-sulfonimidamide]"
23,0.04 to 0.2,"C[C@@](O)(CN)c1ncc(S(N)(=O)=NC(=O)Nc2c3c(cc4c2CCC4)CCC3)s1 (stereo partly drawn) [Example 673, 2-((R)-1-amino-2-hydroxypropan-2-yl)-N′-((1,2,3,5,6,7-hexahydro-s-indacen-4-yl)carbamoyl)thiazole-5-sulfonimidamide]"
24,0.04 to 0.2,"C[C@]1(c2ncc(S(N)(=O)=NC(=O)Nc3c4c(cc5c3CCC5)CCC4)s2)CNC(=O)O1 (stereo partly drawn) [Example 674, N′-((1,2,3,5,6,7-hexahydro-s-indacen-4-yl)carbamoyl)-2-((R)-5-methyl-2-oxooxazolidin-5-yl)thiazole-5-sulfonimidamide]"
25,0.04 to 0.2,"CC(=O)NC[C@@](C)(O)c1ncc(S(N)(=O)=NC(=O)Nc2c3c(cc4c2CCC4)CCC3)s1 (stereo partly drawn) [Example 675, N-((2R)-2-(5-(N′-((1,2,3,5,6,7-hexahydro-s-indacen-4-yl)carbamoyl)sulfamidimidoyl)thiazol-2-yl)-2-hydroxypropyl)acetamide]"
26,0.04 to 0.2,"CC(C)(C)OC(=O)NC[C@@](C)(O)c1ncc(S(N)(=O)=NC(=O)Nc2c3c(cc4c2CCC4)CCC3)s1 (stereo partly drawn) [Example 676, Tert-butyl ((2R)-2-(5-(N′-((1,2,3,5,6,7-hexahydro-s-indacen-4-yl)carbamoyl)sulfamidimidoyl)thiazol-2-yl)-2-hydroxypropyl)carbamate]"
27,0.04 to 0.2,"C[C@@](O)(COCCO)c1ncc(S(N)(=O)=NC(=O)Nc2c3c(cc4c2CCC4)CCC3)s1 (stereo partly drawn) [Example 677, N′-((1,2,3,5,6,7-hexahydro-s-indacen-4-yl)carbamoyl)-2-((R)-2-hydroxy-1-(2-hydroxyethoxy)propan-2-yl)thiazole-5-sulfonimidamide]"
28,5 to 30,"N#Cc1c2c(c(NC(=O)N=S(N)(=O)c3cnc(C(O)(CO)CO)s3)c3c1CCC3)CCC2 (centres unmarked) [Example 678, N′-((8-cyano-1,2,3,5,6,7-hexahydro-s-indacen-4-yl)carbamoyl)-2-(1,2,3-trihydroxypropan-2-yl)thiazole-5-sulfonimidamide]"

# Same assay, conditions: Homo sapiens, THP-1, hTHP-1 assay containing 2% fetal bovine serum, Table B2, given as bound; read-out: IC50
row,IC50 [µM],Structure (SMILES)
1,> 30,"CC(C)(O)c1cnc([S@@](N)(=O)=NC(=O)Nc2c3c(cc4c2CCC4O)CCC3)s1 (stereo partly drawn) [Example 509, (S)-N′-((1-hydroxy-1,2,3,5,6,7-hexahydro-s-indacen-4-yl)carbamoyl)-5-(2-hydroxypropan-2-yl)thiazole-2-sulfonimidamide]"
2,> 30,"CC(C)(O)c1cnc([S@@](N)(=O)=NC(=O)Nc2c3c(cc4c2C(O)CC4)CCC3)s1 (stereo partly drawn) [Example 511, (S)-N′-((3-hydroxy-1,2,3,5,6,7-hexahydro-s-indacen-4-yl)carbamoyl)-5-(2-hydroxypropan-2-yl)thiazole-2-sulfonimidamide]"

# Same assay, conditions: hTHP-1 assay containing 2% fetal bovine serum, Table B2, class symbols; read-out: IC50
row,IC50 [µM],Structure (SMILES)
1,5 to 30,"NS(=O)(=NC(=O)Nc1c2c(cc3c1CCC3)CCC2)c1ccc(C2CCNC2)cc1F (centres unmarked) [Example 500, 2-Fluoro-N′-((1,2,3,5,6,7-hexahydro-s-indacen-4-yl)carbamoyl)-4-(pyrrolidin-3-yl)benzenesulfonimidamide]"
2,1 to 5,"CC(O)(CO)c1cc(F)c(S(N)(=O)=NC(=O)Nc2c3c(c(C#N)c4c2CCC4)CCC3)s1 [Example 631, (R,S) and (S,S)-N′-((8-cyano-1,2,3,5,6,7-hexahydro-s-indacen-4-yl)carbamoyl)-5-(1,2-dihydroxypropan-2-yl)-3-fluorothiophene-2-sulfonimidamide]"
